{"source": "patent US8017400B2", "about": "(priority 2005, dated 2011)", "key": {"[1]": {"molecular_target": "T1, G95A mutant ALS (Oryza sativa subsp. japonica, UniProt Q6K2E8, G95A)", "T1 construct": "made in house; host or cells: Escherichia coli (pGEX-2T)", "T1 sequence (Q6K2E8 44-644 G95A)": "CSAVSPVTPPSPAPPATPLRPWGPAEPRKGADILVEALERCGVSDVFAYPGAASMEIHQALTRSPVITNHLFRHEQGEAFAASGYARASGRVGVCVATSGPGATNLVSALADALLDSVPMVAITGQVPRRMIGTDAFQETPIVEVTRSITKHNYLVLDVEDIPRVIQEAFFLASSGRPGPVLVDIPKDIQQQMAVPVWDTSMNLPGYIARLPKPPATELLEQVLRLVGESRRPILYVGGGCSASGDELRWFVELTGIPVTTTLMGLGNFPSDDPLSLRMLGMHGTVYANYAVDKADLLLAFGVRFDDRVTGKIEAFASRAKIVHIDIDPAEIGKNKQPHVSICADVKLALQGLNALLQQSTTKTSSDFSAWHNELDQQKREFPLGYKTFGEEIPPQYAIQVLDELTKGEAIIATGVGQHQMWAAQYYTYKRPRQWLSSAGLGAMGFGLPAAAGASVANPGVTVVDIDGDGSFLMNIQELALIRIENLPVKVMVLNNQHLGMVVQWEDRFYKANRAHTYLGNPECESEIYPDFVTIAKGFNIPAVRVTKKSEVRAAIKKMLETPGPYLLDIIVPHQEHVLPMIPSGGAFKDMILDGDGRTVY", "test": "Inhibition of expressed GST fusion G95A mutant ALS activity by herbicides", "format": "biochemical, rice", "experimental": "(§1) The Escherichia coli transformed with pGEX-2T having a G95A mutant ALS gene prepared in Example 6 and the same transformed with pGEX-2T (see WO02/44385A1) having a wild-type ALS gene were each shake-cultured (preculture) in 2 ml of LB liquid medium containing ampicillin at 27° C. They were each cultured in 250 ml of LB liquid medium containing ampicillin using 1 ml of the preculture solution. After overnight culture, 1 mM IPTG was added and they were further cultured for 3 to 4 hours. Thus, the expression of the GST fusion protein was induced. In addition, microbial bodies were washed with an ALS extraction buffer (potassium phosphate buffer (pH 7.5) containing 30% glycerol and 0.5 mM MgCl2) and then stored at −80° C.\n(§2) Preparation and purification of ALS from Escherichia coli were performed by the following method. First, a pellet of the Escherichia coli stored at −80° C. was suspended in an ALS extraction buffer. (2.5 ml of the ALS extraction buffer was added to the pellet obtained from 50 ml of the culture solution.) The suspension was subjected to ultrasonication (Heat Systems-Ultrasonics, Sonicator W-225R, micro chip, output control 8, intervals of approximately 1 second, and twice every 40 seconds), and then centrifuged at 15000×g and 4° C. for 20 minutes, thereby obtaining the supernatant as a crude enzyme solution. Therefore, a crude enzyme solution of the GST fusion G95A mutant ALS protein and a crude enzyme solution of the GST fusion wild-type ALS protein were prepared.\n(§3) A reaction solution to be used for the reaction for activity determination was prepared by mixing GST fusion ALS to be subjected to activity determination with a solution comprising 20 mM sodium pyruvate, 0.5 mM thiamine pyrophosphate, 0.5 mM MgCl2, 10 μM flavin adenine dinucleotide, 10 mM valine (added for the inhibition of activity of ALS derived from Escherichia coli), and 20 mM potassium phosphate buffer (pH 7.5). 0.5 ml of the reaction solution was used. The reaction was performed at 37° C. for 30 minutes after addition of GST fusion ALS to be subjected to activity determination. The reaction was stopped by the addition of 0.05 ml of 6 N sulfuric acid. After the completion of the reaction, the reaction solution was subjected to incubation at 37° C. for 60 minutes, so that acetolactic acid contained in the reaction solution was converted into acetoin. Subsequently, to quantify acetoin contained in the reaction solution, 0.05 ml of 0.5% (w/v) creatine and 0.05 ml of 5% (w/v) α-naphthol dissolved in 2.5 N sodium hydroxide were added, followed by 10 minutes of incubation at 37° C. Acetoin was then quantified by color comparison of the absorbance at 525 nm of the reaction solution, thereby evaluating ALS activity. The value at reaction time 0 (hours) was used as a control value. When the herbicide inhibition activity was examined, aqueous solutions of bispyribac-sodium and pyrithiobac-sodium were each prepared at a 100-fold concentration and then added to the reaction solution. In the case of pyriminobac, chlorsulfuron, bensulfuron-methyl, imazaquin, and imazapyr having low water solubility, an acetone solution was prepared for each thereof at a 100-fold concentrations and then added to the reaction solution.\n(§4) The inhibition activity of various ALS inhibitors against the thus expressed G95A mutant ALS was examined."}, "[2]": {"system": "G95A mutant ALS", "test": "Inhibition of expressed GST fusion G95A mutant ALS activity by herbicides", "format": "biochemical, rice", "conditions": "50% inhibitory concentration against G95A mutant ALS to that against wild-type ALS", "experimental": "as §1, §2, §3, §4"}, "[3]": {"molecular_target": "T2, wild-type ALS (GST fusion wild-type ALS) (Oryza sativa subsp. japonica, UniProt Q6K2E8)", "T2 construct": "made in house; host or cells: Escherichia coli (pGEX-2T)", "T2 sequence (Q6K2E8 44-644)": "as the sequence (Q6K2E8 44-644 G95A) above, with A52G counted along it", "test": "Inhibition of expressed GST fusion wild-type ALS activity by herbicides", "format": "biochemical, rice", "experimental": "as §1, §2, §3\nThe 50% inhibitory concentration of each herbicide against G95A mutant ALS was compared with the 50% inhibitory concentration of the herbicide against wild-type ALS (GST fusion wild-type ALS), so that the herbicide resistance ratio (RS ratio) of the 50% inhibitory concentration against G95A mutant ALS to that against wild-type ALS was calculated. The RS ratios in the cases of bispyribac-sodium, pyrithiobac-sodium, and pyriminobac were 16,000:1 or more, 9, 100:1 or more, and 13,000:1 or more, respectively. In contrast, the RS ratios in the cases of chlorsulfuron, bensulfuron-methyl, imazaquin, and imazapyr were 0.19:1, 40:1, 0.82:1, and 4.9:1, respectively. […]"}, "[4]": {"system": "clone plants of the G95A-1 line and the G95A-2 line", "test": "Bispyribac-sodium resistance test on rooting medium, G95A lines", "format": "in vivo, rice", "conditions": "G95A-1 line at 1, 5, 10, 20 μM, G95A-2 line at 5 μM; observed 1 and 2 weeks after transplantation", "experimental": "(§5) The two lines of plants selected by the above method were designated the G95A-1 line and the G95A-2 line. Since they were albino plants, they were cultured on MS medium and then multiplied by division. To test the degree of resistance to bispyribac-sodium, clone plants divided from the G95A-1 line were transplanted on rooting media (Table 3) containing 0 μM, 1 μM, 5 μM, 10 μM, or 20 μM bispyribac-sodium (FIG. 3A: on the left in each Petri dish, observed as white because they were albino). Clone plants of the G95A-2 line (the number of these clone plants is a few) were tested using 5 μM bispyribac-sodium alone. Plants of wild-type Taichung 65 in 2 weeks after seeding were used as members of a control group (FIG. 3, on the right side in each Petri dish). Plant in 1 week (FIG. 3B) after transplantation and plant in 2 weeks (FIG. 3C) after transplantation were observed."}, "[5]": {"system": "plants of wild-type Taichung 65", "test": "Bispyribac-sodium resistance test on rooting medium, wild-type control", "format": "in vivo, rice", "conditions": "wild-type Taichung 65, 2 weeks after seeding; observed 1 and 2 weeks after transplantation", "experimental": "as §5"}, "[6]": {"conditions": "50% inhibitory concentration (μM) G95A mutant, G95A mutant ALS (Table 5)"}, "[7]": {"conditions": "50% inhibitory concentration, Average, G95A mutant ALS, average of determinations (Table 4)"}, "[8]": {"conditions": "50% inhibitory concentration, G95A mutant ALS, single determinations (First to Sixth)"}, "[9]": {"conditions": "read-out: inhibition % at 100 μM, Average, G95A mutant ALS, average of determinations"}, "[10]": {"conditions": "read-out: inhibition % at 100 μM, G95A mutant ALS, single determinations (First to Third)"}, "[11]": {"conditions": "read-out: inhibition activity at 100 μM, G95A mutant ALS"}}, "note": "Where “and” joins values, the source holds several entries; their conditions need not be identical. Equal values may be shown once. Read-outs that look alike come from different tables or passages of the source.", "data": [{"compound": "CC(C)C1(C)N=C(c2nc3ccccc3cc2C(=O)O)NC1=O", "note": "(stereo not shown) [Imazaquin, imazaquin]", "values": [{"measurement": "IC50", "setting": "[1]; [6]", "value": 1.8, "unit": "µM"}, {"measurement": "IC50", "setting": "[1]; [7]", "value": 1.8, "unit": "µM"}, {"measurement": "IC50", "setting": "[1]; [8]", "value": "1.65 µM and 1.89 µM and 1.85 µM"}, {"measurement": "inhibition activity against G95A mutant ALS (in words)", "setting": "[1]; G95A mutant ALS", "value": "exerted inhibition activity"}, {"measurement": "Resistance ratio (RS ratio)", "setting": "[2]", "value": 0.82}, {"measurement": "IC50", "setting": "[3]", "value": 2200, "unit": "nM"}]}, {"compound": "COc1cc(OC)nc(Sc2cccc(Cl)c2C(=O)[O-])n1.[Na+]", "note": "[Pyrithiobac-sodium, pyrithiobac-sodium]", "values": [{"measurement": "IC50", "setting": "[1]; [6]", "value": "> 100", "unit": "µM"}, {"measurement": "inhibition % at 100 μM", "setting": "[1]; G95A mutant ALS, single determinations (First to Third), listed as PS", "value": "12.8% and 18.1%"}, {"measurement": "inhibition at 100 µM", "setting": "[1]; [9]", "value": 14.3, "unit": "%"}, {"measurement": "inhibition at 100 µM", "setting": "[1]; [10]", "value": 12.1, "unit": "%"}, {"measurement": "inhibition at 100 µM", "setting": "[1]; [11]", "value": "≤ 50", "unit": "%"}, {"measurement": "Resistance ratio (RS ratio)", "setting": "[2]", "value": ">9100"}, {"measurement": "IC50", "setting": "[3]", "value": 11, "unit": "nM"}]}, {"compound": "COc1nc(C)nc(NC(=O)NS(=O)(=O)c2ccccc2Cl)n1", "note": "[Chlorsulfuron, chlorsulfuron]", "values": [{"measurement": "IC50", "setting": "[1]; [6]", "value": 0.0025, "unit": "µM"}, {"measurement": "IC50", "setting": "[1]; [7]", "value": 0.0025, "unit": "µM"}, {"measurement": "IC50", "setting": "[1]; [8]", "value": "0.0019 µM and 0.0023 µM and 0.003 µM and 0.0027 µM and 0.0028 µM and 0.0021 µM"}, {"measurement": "inhibition activity against G95A mutant ALS (in words)", "setting": "[1]; G95A mutant ALS", "value": "strong"}, {"measurement": "Resistance ratio (RS ratio)", "setting": "[2]", "value": 0.19}, {"measurement": "IC50", "setting": "[3]", "value": 13, "unit": "nM"}]}, {"compound": "CON=C(C)c1cccc(Oc2nc(OC)cc(OC)n2)c1C(=O)O", "note": "(mixture of isomers) [Pyriminobac, pyriminobac]", "values": [{"measurement": "IC50", "setting": "[1]; [6]", "value": "> 100", "unit": "µM"}, {"measurement": "inhibition % at 100 μM", "setting": "[1]; G95A mutant ALS, single determinations (First to Third), listed as PM", "value": "23.3% and 29.2%"}, {"measurement": "inhibition at 100 µM", "setting": "[1]; [9]", "value": 25.1, "unit": "%"}, {"measurement": "inhibition at 100 µM", "setting": "[1]; [10]", "value": 22.9, "unit": "%"}, {"measurement": "inhibition at 100 µM", "setting": "[1]; [11]", "value": "≤ 50", "unit": "%"}, {"measurement": "Resistance ratio (RS ratio)", "setting": "[2]", "value": ">13000"}, {"measurement": "Resistance ratio (RS ratio)", "setting": "[2]; listed as pyriminobac", "value": "≥ 13,000"}, {"measurement": "IC50", "setting": "[3]", "value": 8, "unit": "nM"}]}, {"compound": "CC(C)C1(C)N=C(c2ncccc2C(=O)O)NC1=O", "note": "(stereo not shown) [Imazapyr, imazapyr]", "values": [{"measurement": "IC50", "setting": "[1]; [6]", "value": 47, "unit": "µM"}, {"measurement": "IC50", "setting": "[1]; [7]", "value": 46.8, "unit": "µM"}, {"measurement": "IC50", "setting": "[1]; [8]", "value": "46 µM and 44.6 µM and 49.7 µM"}, {"measurement": "inhibition activity against G95A mutant ALS (in words)", "setting": "[1]; G95A mutant ALS", "value": "exerted inhibition activity"}, {"measurement": "Resistance ratio (RS ratio)", "setting": "[2]", "value": 4.9}, {"measurement": "IC50", "setting": "[3]", "value": 9600, "unit": "nM"}]}, {"compound": "COC(=O)c1ccccc1CS(=O)(=O)NC(=O)Nc1nc(OC)cc(OC)n1", "note": "[Bensulfuron-methyl, bensulfuron-methyl]", "values": [{"measurement": "IC50", "setting": "[1]; [6]", "value": 0.28, "unit": "µM"}, {"measurement": "IC50", "setting": "[1]; [7]", "value": 0.278, "unit": "µM"}, {"measurement": "IC50", "setting": "[1]; [8]", "value": "0.268 µM and 0.294 µM and 0.271 µM"}, {"measurement": "inhibition activity against G95A mutant ALS (in words)", "setting": "[1]; G95A mutant ALS", "value": "exerted inhibition activity"}, {"measurement": "Resistance ratio (RS ratio)", "setting": "[2]", "value": 40}, {"measurement": "IC50", "setting": "[3]", "value": 7, "unit": "nM"}]}, {"compound": "COc1cc(OC)nc(Oc2cccc(Oc3nc(OC)cc(OC)n3)c2C(=O)[O-])n1.[Na+]", "note": "[Bispyribac-sodium, bispyribac-sodium]", "values": [{"measurement": "IC50", "setting": "[1]; [6]", "value": "> 100", "unit": "µM"}, {"measurement": "inhibition % at 100 μM", "setting": "[1]; G95A mutant ALS, single determinations (First to Third), listed as BS", "value": "16.8% and 18.4%"}, {"measurement": "inhibition at 100 µM", "setting": "[1]; [9]", "value": 17.7, "unit": "%"}, {"measurement": "inhibition at 100 µM", "setting": "[1]; [10]", "value": 17.9, "unit": "%"}, {"measurement": "inhibition at 100 µM", "setting": "[1]; [11]", "value": "≤ 50", "unit": "%"}, {"measurement": "Resistance ratio (RS ratio)", "setting": "[2]", "value": ">16000"}, {"measurement": "Resistance ratio (RS ratio)", "setting": "[2]; listed as bispyribac-sodium", "value": "≥ 16,000"}, {"measurement": "IC50", "setting": "[3]", "value": 6.3, "unit": "nM"}, {"measurement": "resistance / rooting on bispyribac-sodium-containing rooting medium", "setting": "[4]", "value": "exerted resistance, with new rooting observed"}, {"measurement": "effect on plants on bispyribac-sodium-containing rooting medium", "setting": "[5]", "value": "all the wild-type plants of the control group withered"}]}]}
